Data set [1] concerns the target Ba/F3 EGFR Del19/C797S cells (Homo sapiens, UniProt P00533, C797S, cells depend on it, form not given). As to the kind of experiment: Cell proliferation inhibition (Cell Titer-Glo), Ba/F3 EGFR Del19/C797S. It counts as cell-based, mouse. The note with it: 72 hours, CellTiter-Glo, read-out: Ba/F3 EGFR Del19/C797S IC50. The essentials:
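Ba/F3 lines carrying the EGFR mutants, grown in RPMI 1640 with 10% FBS, were seeded overnight then exposed to compound for 72 h at 37 °C, 5% CO2. Viability by CellTiter-Glo luminescence; IC50 from nonlinear regression of inhibition versus concentration.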

A short description of data set [2]: Rat pharmacokinetic evaluation test. It counts as in vivo. The note with it: Sprague-Dawley (SD), po, SD rats, male, p.o. 5 mg/kg, plasma. The procedure:
SD rats were used as test animals to study the pharmacokinetic behavior of the compounds of the present invention in the rat body (plasma) after oral administration at a dose of 5 mg/kg.
2.2 Experimental Animals: 3 SD Rats/Group, Male, from Shanghai Jiesijie Experimental Animal Co., Ltd., Animal Production License Number (SCXK (Shanghai) 2013-0006 No. 311620400001794).
• Oral administration drug preparation: 20% solutol HS15 in 0.5% MC (methylcellulose)
20 g of a Solutol HS15 solid and 0.5 g of a MC solid powder were weighed and dissolved in 80 mL of purified water, and the mixture was vortexed, mixed until uniform, and subjected to ultrasound treatment to obtain a clear solution of 20% solutol HS15 in 0.5% MC.
The example compound was weighed into a 20 mL glass bottle, the solution was added thereto and the mixture was subjected to ultrasound treatment for 10 minutes to obtain a clear solution with a concentration of 0.5 mg/mL.
3 male SD rats were administered p.o. respectively after the 3 male SD rats were fasted overnight; the p.o. dose was 5 mg/kg and the administration volume was 10 mL/kg.
Blood collection: Before and after administration to rats, 0.2 mL of blood was collected from the jugular vein at 0.25, 0.5, 1, 2, 4, 6, 8 and 24 h, and placed in an EDTA-K2 anticoagulation tube, which was centrifuged at 6000 rpm at 4° C. for 6 min to separate plasma which was stored at −80° C.; the rats were fed 4 h after administration.
1) 160 μL of acetonitrile was added to 40 μL of plasma sample for precipitation, mixed and centrifuged at 3500×g for 5 to 20 min.
2) the treated supernatant solution was taken and subjected to LC/MS/MS to analyze the concentrations of the test compounds. LC/MS/MS analysis instrument: AB Sciex API 4000 Qtrap.
• Liquid phase conditions: Shimadzu LC-20AD pump • Chromatographic column: Agilent ZORBAX XDB-C18 (50×2.1 mm, 3.5 μm) mobile phase: liquid A is 0.1% aqueous formic acid solution, liquid B is acetonitrile • Flow rate: 0.4 mL/min • Elution time: 0-4.0 min, the eluent is as follows:
The main pharmacokinetic parameters were calculated using WinNonlin 6.1.

Data set [3] concerns the target Ba/F3 EGFR L858R/T790M/C797S cells (Homo sapiens, UniProt P00533, T790M/C797S/L858R, cells depend on it). The experiment in a line: Cell proliferation inhibition (Cell Titer-Glo), Ba/F3 EGFR L858R/T790M/C797S. It counts as cell-based, mouse. The note with it: 72 hours, CellTiter-Glo, read-out: Ba/F3 EGFR L858R_T790M_C797S IC50. An excerpt: (§1) Experimental objective: The objective of this test example is to test the inhibitory activity of compounds on the proliferation of different EGFR C797S drug-resistant mutant cell lines Ba/F3 EGFR Del19/T790M/C797S, Ba/F3 EGFR L858R/T790M/C797S, and Ba/F3 EGFR Del19/C797S.
(§2) • Ba/F3 EGFR Del19/T790M/C797S cells were purchased from KYinno Biotechnology Co., Ltd.; • Ba/F3 EGFR Del19/C797S cells were purchased from CoBioer Biosciences Co., Ltd.; • Ba/F3 EGFR L858R/T790M/C797S cells were purchased from CoBioer Biosciences Co., Ltd.; • Cell Titer-Glo was purchased from Promega, with a catalog number of G7573; • RPMI 1640 was purchased from Gibco, with a catalog number of 22400089; • FBS was purchased from Gibco, with a catalog number of 10091148; • cell culture plates were purchased from Corning, with a catalog number of 3610.
(§3) The inhibitory activity of the compound on the proliferation of different EGFR C797S drug-resistant mutant cell lines was detected using the Cell Titer-Glo method. The different cell lines were cultured in RPMI 1640 complete culture medium containing 10% FBS under conditions of 37° C. and 5% CO2, the cells were collected by centrifugation when growing to a certain density, and adjusted to appropriate cell density after counting, the cells were spread on a white 96-well plate at 90 μL/well, and cultured in a 37° C., 5% CO2 incubator overnight, prepared compound solutions of different concentrations were added at 10 μL/well, corresponding solvent controls were set, and all wells were cultured in a 37° C., 5% CO2 incubator for 72 hours, 50 μL of CellTiter-Glo solution was added to each well, shook and mixed evenly, and incubated in the dark for 10 minutes, and a BioTek Synergy H1 microplate reader was used for reading.
(§4) The luminescence signal value was used to calculate the inhibition rate. Graphpad Prism software was used to fit the concentration and inhibition rate to a nonlinear regression curve, so as to obtain the IC50 value, as shown in the Table below for details.

Data set [4] has as its target Ba/F3 EGFR Del19/T790M/C797S cells (Homo sapiens, UniProt P00533, T790M/C797S, cells depend on it, form not given). The experiment in a line: Cell proliferation inhibition (Cell Titer-Glo), Ba/F3 EGFR Del19/T790M/C797S. It counts as cell-based, mouse. The note with it: 72 hours, CellTiter-Glo, read-out: Ba/F3 EGFR Del19_T790M_C797S IC50.
From the text: as §1, §2, §3, §4

Chain of Ba/F3 EGFR Del19/C797S cells (P00533 with tags, fused parts or gaps DEL746-750/C797S, form open): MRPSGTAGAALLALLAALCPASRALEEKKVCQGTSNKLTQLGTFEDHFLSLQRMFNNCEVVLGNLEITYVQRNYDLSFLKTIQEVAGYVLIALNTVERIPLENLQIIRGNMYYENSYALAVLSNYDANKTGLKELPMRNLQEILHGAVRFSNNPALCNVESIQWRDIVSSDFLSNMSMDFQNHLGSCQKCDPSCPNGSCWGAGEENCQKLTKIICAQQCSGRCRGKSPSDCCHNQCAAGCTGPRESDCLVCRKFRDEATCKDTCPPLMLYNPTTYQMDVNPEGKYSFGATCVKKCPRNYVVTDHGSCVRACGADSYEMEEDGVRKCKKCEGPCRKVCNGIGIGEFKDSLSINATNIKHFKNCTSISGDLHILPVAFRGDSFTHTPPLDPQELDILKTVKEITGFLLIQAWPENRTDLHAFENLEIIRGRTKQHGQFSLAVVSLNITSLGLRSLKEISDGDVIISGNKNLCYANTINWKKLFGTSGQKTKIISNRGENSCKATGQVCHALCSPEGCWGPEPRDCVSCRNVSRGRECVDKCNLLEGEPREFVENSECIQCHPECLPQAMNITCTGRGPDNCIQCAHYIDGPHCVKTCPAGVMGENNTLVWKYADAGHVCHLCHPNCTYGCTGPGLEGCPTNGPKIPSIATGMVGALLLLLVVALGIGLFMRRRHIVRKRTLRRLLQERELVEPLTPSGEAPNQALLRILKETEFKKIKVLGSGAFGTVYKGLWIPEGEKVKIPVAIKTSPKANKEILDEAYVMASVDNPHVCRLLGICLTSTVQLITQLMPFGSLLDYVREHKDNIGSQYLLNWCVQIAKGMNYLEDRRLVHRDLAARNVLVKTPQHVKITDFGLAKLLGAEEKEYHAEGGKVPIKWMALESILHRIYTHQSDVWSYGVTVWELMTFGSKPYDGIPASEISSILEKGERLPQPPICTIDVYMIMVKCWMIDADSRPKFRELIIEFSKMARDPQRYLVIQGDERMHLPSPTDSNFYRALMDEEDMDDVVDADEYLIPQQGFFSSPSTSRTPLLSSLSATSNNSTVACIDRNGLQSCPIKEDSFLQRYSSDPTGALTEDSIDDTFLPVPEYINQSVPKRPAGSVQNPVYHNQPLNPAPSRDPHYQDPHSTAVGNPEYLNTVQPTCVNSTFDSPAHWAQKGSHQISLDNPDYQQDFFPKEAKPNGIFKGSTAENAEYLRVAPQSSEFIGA
Chain of Ba/F3 EGFR L858R/T790M/C797S cells (P00533 whole entry T790M/C797S/L858R): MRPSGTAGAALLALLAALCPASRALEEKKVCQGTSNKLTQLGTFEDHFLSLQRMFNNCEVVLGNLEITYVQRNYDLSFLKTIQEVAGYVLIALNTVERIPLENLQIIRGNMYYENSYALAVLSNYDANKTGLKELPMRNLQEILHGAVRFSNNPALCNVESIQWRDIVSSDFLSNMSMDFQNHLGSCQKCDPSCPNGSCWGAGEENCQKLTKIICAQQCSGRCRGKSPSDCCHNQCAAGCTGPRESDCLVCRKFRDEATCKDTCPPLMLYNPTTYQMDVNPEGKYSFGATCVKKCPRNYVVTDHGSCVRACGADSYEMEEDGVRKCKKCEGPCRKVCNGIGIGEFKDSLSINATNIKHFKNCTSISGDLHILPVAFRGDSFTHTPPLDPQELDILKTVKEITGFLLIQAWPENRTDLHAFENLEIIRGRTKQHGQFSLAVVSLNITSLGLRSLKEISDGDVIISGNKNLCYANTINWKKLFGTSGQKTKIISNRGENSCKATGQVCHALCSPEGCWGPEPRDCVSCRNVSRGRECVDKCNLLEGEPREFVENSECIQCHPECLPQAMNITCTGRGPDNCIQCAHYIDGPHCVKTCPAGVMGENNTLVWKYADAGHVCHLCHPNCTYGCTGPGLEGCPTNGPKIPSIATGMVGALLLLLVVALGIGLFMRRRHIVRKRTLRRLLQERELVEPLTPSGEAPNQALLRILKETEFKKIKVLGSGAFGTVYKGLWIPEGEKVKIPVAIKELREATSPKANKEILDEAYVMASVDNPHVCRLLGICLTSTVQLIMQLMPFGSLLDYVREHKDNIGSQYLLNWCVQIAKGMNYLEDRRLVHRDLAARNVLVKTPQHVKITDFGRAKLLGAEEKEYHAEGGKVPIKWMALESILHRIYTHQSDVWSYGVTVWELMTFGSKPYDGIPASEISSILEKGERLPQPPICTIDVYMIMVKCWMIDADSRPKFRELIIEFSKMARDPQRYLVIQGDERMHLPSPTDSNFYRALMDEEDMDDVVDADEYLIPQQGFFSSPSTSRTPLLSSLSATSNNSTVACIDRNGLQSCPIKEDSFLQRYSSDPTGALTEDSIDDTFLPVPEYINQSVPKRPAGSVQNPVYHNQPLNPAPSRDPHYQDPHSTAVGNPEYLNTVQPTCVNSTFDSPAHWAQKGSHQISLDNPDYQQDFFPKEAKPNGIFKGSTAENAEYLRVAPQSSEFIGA
Chain of Ba/F3 EGFR Del19/T790M/C797S cells (P00533 with tags, fused parts or gaps DEL746-750/T790M/C797S, form open): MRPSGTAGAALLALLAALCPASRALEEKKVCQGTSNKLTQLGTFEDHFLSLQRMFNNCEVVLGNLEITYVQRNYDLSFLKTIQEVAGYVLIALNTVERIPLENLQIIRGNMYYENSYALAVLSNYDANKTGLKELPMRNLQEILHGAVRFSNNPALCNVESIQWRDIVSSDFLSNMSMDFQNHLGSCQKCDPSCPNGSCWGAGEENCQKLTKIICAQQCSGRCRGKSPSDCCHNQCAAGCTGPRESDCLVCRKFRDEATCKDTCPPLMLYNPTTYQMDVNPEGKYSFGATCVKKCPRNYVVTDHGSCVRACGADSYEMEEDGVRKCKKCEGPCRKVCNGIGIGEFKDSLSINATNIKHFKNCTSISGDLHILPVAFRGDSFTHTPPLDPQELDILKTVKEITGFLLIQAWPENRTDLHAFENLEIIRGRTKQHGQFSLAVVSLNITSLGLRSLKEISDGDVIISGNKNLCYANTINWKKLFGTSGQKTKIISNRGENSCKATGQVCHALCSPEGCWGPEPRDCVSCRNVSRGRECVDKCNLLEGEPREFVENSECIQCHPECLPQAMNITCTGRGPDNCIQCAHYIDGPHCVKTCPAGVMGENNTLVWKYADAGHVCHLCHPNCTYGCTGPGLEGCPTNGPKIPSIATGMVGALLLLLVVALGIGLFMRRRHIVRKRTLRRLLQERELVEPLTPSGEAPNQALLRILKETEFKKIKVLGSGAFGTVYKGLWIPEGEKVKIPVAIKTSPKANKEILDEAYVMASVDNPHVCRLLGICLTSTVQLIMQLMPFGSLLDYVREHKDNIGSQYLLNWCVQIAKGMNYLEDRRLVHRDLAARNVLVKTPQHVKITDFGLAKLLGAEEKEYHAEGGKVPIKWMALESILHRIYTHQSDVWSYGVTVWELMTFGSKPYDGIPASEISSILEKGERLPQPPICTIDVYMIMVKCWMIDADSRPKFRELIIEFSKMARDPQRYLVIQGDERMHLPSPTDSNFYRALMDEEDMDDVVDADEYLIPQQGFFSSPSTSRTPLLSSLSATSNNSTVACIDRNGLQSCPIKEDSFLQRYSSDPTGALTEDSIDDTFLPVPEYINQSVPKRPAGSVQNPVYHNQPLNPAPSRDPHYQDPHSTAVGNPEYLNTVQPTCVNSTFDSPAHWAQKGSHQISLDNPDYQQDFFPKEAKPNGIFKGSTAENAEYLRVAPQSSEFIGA

For `CC(C)c1ccc(N2C[C@H](CS(C)(=O)=O)[C@H]2C)c2cnc(Nc3ccnc(-c4cn(C)nc4Cl)n3)cc12` [Example 5, N-(2-(3-chloro-1-methyl-1H-pyrazol-4-yl)pyrimidin-4-yl)-5-isopropyl-8-((2R,3S)-2-methyl-3-((methanesulfonyl)methyl)azabut-1-yl)isoquinolin-3-amine], in data set [1], the GI50 turned out to be 5.1 nM. In data set [2], this compound showed an AUC(0-t) of 1260 ng·h/mL, a Cmax of 239 ng/mL and a half-life of 4.1 h. Also, the GI50 in data set [3] stood at 11 nM. Besides, the GI50 in data set [4] turned out to be 3.7 nM.
For `CC(C)c1ccc(N2C[C@H](N(C)S(C)(=O)=O)[C@H]2C)c2cnc(Nc3ccnc(-c4cn(C)nc4Cl)n3)cc12` [Example 122, N-((2R,3S)-1-(3-((2-(3-chloro-1-methyl-1H-pyrazol-4-yl)pyrimidin-4-yl)amino)-5-isopropylisoquinolin-8-yl)-2-methylazetidin-3-yl)-N-methyl methanesulfonamide], the GI50 in data set [1] was determined as 5.1 nM. Also, in data set [2], the AUC(0-t) came out at 1260 ng·h/mL, the concentration peaked (Cmax) at 97 ng/mL and the half-life was 3.5 h. Also, in data set [3], the GI50 is 8.2 nM. Moreover, the GI50 in data set [4] turned out to be 2.9 nM.
On to `CC(C)c1ccc(N2C[C@H](NS(C)(=O)=O)[C@H]2C)c2cnc(Nc3ccnc(-c4cn(C)nc4Cl)n3)cc12` [Example 123, N-((2R,3S)-1-(3-((2-(3-chloro-1-methyl-1H-pyrazol-4-yl)pyrimidin-4-yl)amino)-5-isopropylisoquinolin-8-yl)-2-methylazetidin-3-yl)methanesulfonamide], for which the GI50 in data set [1] turned out to be 6.5 nM; in data set [3], 13 nM; in data set [4], 3.3 nM.
Take `Cc1nn(C)cc1-c1nccc(Nc2cc3c(C(C)C)ccc(N4C[C@H](N(C)S(C)(=O)=O)[C@H]4C)c3cn2)n1` [Example 126, N-((2R,3S)-1-(3-((2-(1,3-dimethyl-1H-pyrazol-4-yl)pyrimidin-4-yl)amino)-5-isopropylisoquinolin-8-yl)-2-methylazetidin-3-yl)-N-methyl methanesulfonamide]: the GI50 was 3 nM in data set [1], 7.5 nM in data set [3] and 2.1 nM in data set [4]. Moreover, the AUC(0-t) in data set [2] was 3140 ng·h/mL. Also, the Cmax in data set [2] stood at 240 ng/mL. In addition, in data set [2], the half-life was 3.3 h.
Regarding `CC(C)c1cnc(N2C[C@H](CS(C)(=O)=O)[C@H]2C)c2cnc(Nc3ccnc(-c4cn(C)nc4Cl)n3)cc12` [Example 132, N-(2-(3-chloro-1-methyl-1H-pyrazol-4-yl)pyrimidin-4-yl)-5-isopropyl-8-((2R,3S)-2-methyl-3-((methanesulfonyl)methyl)azetidin-1-yl)-2,7-diazanaphthalen-3-amine], the GI50 stood at 6.4 nM in data set [1], 15 nM in data set [3] and 5.6 nM in data set [4]. This compound gave an AUC(0-t) in data set [2] of 1570 ng·h/mL. Also, the Cmax in data set [2] was determined as 180 ng/mL. This compound also had a half-life in data set [2] of 3 h.
Regarding `CC(C)c1c(F)cc(N2C[C@H](NS(C)(=O)=O)[C@H]2C)c2cnc(Nc3ccnc(-c4cn(C)nc4Cl)n3)cc12` [Example 186, N-((2R,3S)-1-(3-((2-(3-chloro-1-methyl-1H-pyrazol-4-yl)pyrimidin-4-yl)amino)-6-fluoro-5-isopropylisoquinolin-8-yl)-2-methylazetidin-3-yl)methanesulfonamide], the results for the GI50 in data set [1], in data set [3] and in data set [4] were 2.6 nM, 8.8 nM and 5.9 nM, respectively.

These data come from US20250206718A1, “NITROGEN-CONTAINING HETEROCYCLIC DERIVATIVE INHIBITOR, PREPARATION METHOD THEREFOR AND USE THEREOF” (SHANGHAI HANSOH BIOMEDICAL CO., LTD., priority 2022, published 2025).
